The record followed here is US12527774B2, “Estrogen-related receptor alpha modulators” (LEAD PHARMA HOLDING B.V., priority 2019, dated 2026).

ERRα ligand binding domain (ERRα-LBD), sequence (P11474 193-421): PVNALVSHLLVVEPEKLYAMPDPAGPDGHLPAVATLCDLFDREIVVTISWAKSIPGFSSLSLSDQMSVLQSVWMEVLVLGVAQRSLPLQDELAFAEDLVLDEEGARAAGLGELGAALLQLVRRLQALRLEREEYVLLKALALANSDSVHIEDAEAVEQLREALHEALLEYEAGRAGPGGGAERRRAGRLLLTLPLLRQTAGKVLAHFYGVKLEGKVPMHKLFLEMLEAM

One assay addresses ERRα ligand binding domain (ERRα-LBD) (Homo sapiens (Human), UniProt P11474). Put plainly: ERRα AlphaScreen Assay. The assay is classed as biochemical. The following applies: disruption of binding of ERRα-LBD protein to biotin-PGC1α-3 co-activator peptide. The source says:
This assay was based on the knowledge that nuclear receptors interact with cofactors in a ligand dependent matter. The sites of interaction have been mapped to LXXLL motifs that are present in the co-activator sequences. Short peptide sequences that contain the LXXLL motif mimic the behavior of full length co-activators.
The ERRα AlphaScreen Assay described here relies on the interaction of the co-activator peptide with purified bacterial-expressed ERRα ligand binding domain (ERRα-LBD); upon ligand binding the ERRα protein can undergo a conformational change resulting in a loss of co-activator binding.
Compounds of the present invention were tested for their ability to disrupt binding of ERRα-LBD protein to co-activator peptide using AlphaScreen® Technology (Perkin Elmer). ERRα-LBD protein was expressed in E. coli as a 6×His Small Ubiquitin-like Modifier (SUMO) fusion. Bacterial expressed 6His-SUMO-ERRα-LBD protein was purified using affinity chromatography. All experiments were performed at room temperature in 384-well white non-binding plates (Greiner) using 50 mM Tris-HCl pH 7.5, 100 mM NaCl, 0,1% Pluronic F-127, 0.05% BSA and 5 mM TCEP as the buffer. Final DMSO concentration was 1% in the assay. Compounds were assayed in triplicate and: incubated with 0.81 nM ERRα-LBD protein and 10 μg/mL streptavidin donor beads and 10 μg/mL Ni-chelate acceptor beads for 1 hour at room temperature; followed by a 2-hour incubation with 15 nM biotin-PGC1α-3 peptide (QRRPCSELLKYLTTNDDPP) corresponding to amino acids 202 to 220.
The AlphaScreen signal was measured using an Envision Xcite plate reader (Perkin Elmer). Data was normalized, and curve fitting analysis was performed in GraphPad Prism 7 using a four-parameter dose-response fit.
As multiple IC50 values were annotated for the same compound-protein pair, a mean pIC50 for each compound was determined.
For `COc1cc(C2CC(=O)Nc3n[nH]cc32)ccc1COc1ccc(C(F)F)cc1C(F)F` (single isomer, unassigned; (-)) [Example 218, (−)-4-(4-{[2,4-bis(difluoromethyl)phenoxy]methyl}-3-methoxyphenyl)-2H,4H,5H,6H,7H-pyrazolo[3,4-b]pyridin-6-one], the “mean pIC50” value is at least 8.

As to `COc1cc(C2CC(=O)Nc3n[nH]cc32)ccc1COc1ccc(C)cc1C` (single isomer, unassigned; (-)) [Example 220, (−)-4-{4-[(2,4-dimethylphenoxy)methyl]-3-methoxyphenyl}-2H,4H,5H,6H,7H-pyrazolo[3,4-b]pyridin-6-one], the “mean pIC50” value is reported as at least 8.

Consider `COc1cc(C2CC(=O)Nc3n[nH]cc32)ccc1OCc1ccccc1I` (stereo not drawn) [Example 23, 4-{4-[(2-iodophenyl)methoxy]-3-methoxyphenyl}-2H,4H,5H,6H, 7H-pyrazolo[3,4-b]pyridin-6-one], for which the “mean pIC50” value is on record as at least 8.

For `COc1cc(C2CC(=O)Nc3n[nH]cc32)ccc1OCc1ccc(C(C)=O)cc1C(F)(F)F` (stereo not drawn) [Example 41, 4-(4-{[4-acetyl-2-(trifluoromethyl)phenyl]methoxy}-3-methoxyphenyl)-2H,4H,5H,6H, 7H-pyrazolo[3,4-b]pyridin-6-one], the “mean pIC50” value is recorded as at least 8.

`COC(=O)c1ccc(COc2ccc(C3CC(=O)Nc4n[nH]cc43)cc2OC)c(C(F)(F)F)c1` (stereo not drawn) [Example 42, methyl 4-[(2-methoxy-4-{6-oxo-2H,4H,5H,6H,7H-pyrazolo[3,4-b]pyridin-4-yl}phenoxy)methyl]-3-(trifluoromethyl)benzoate]: the “mean pIC50” value is on record as at least 8.

The assay is the same for the next values; noted with them: disruption of binding of ERRα-LBD protein to biotin-PGC1α-3 co-activator peptide; read-out: mean pIC50 (converted).
Take `COc1cc(C2CC(=O)Nc3n[nH]cc32)ccc1COc1ccc(C(F)(F)F)cc1C(F)F` (single isomer, unassigned; (-)) [Example 216, (−)-4-(4-{[2-(difluoromethyl)-4-(trifluoromethyl)phenoxy]methyl}-3-methoxyphenyl)-2H,4H,5H,6H,7H-pyrazolo[3,4-b]pyridin-6-one]: the IC50 was 10 to 100 nM.

`COc1cc(C2CC(=O)Nc3n[nH]cc32)ccc1OCc1ccccc1Cl` (stereo not drawn) [Example 2, 4-{4-[(2-chlorophenyl)methoxy]-3-methoxyphenyl}-2H,4H,5H,6H,7H-pyrazolo[3,4-b]pyridin-6-one]: the IC50 was 10 to 100 nM.

For the compound `COc1cc(C2CC(=O)Nc3n[nH]cc32)ccc1OCc1ccccc1Br` (stereo not drawn) [Example 4, 4-{4-[(2-bromophenyl)methoxy]-3-methoxyphenyl}-2H,4H,5H,6H, 7H-pyrazolo[3,4-b]pyridin-6-one], the IC50 is 10 to 100 nM.

As to `COc1cc(C2CC(=O)Nc3n[nH]cc32)ccc1OCc1cccc(Br)c1` (stereo not drawn) [Example 11, 4-{4-[(3-bromophenyl)methoxy]-3-methoxyphenyl}-2H,4H,5H,6H, 7H-pyrazolo[3,4-b]pyridin-6-one], the IC50 is 100 to 1000 nM.

In the case of `COc1cc(C2CC(=O)Nc3n[nH]cc32)ccc1OCc1cc(C(F)(F)F)ccc1C(F)(F)F` (stereo not drawn) [Example 14, 4-(4-{[2,5-bis(trifluoromethyl)phenyl]methoxy}-3-methoxyphenyl)-2H,4H,5H,6H, 7H-pyrazolo[3,4-b]pyridin-6-one], the IC50 is 10 to 100 nM.

Consider `COc1cc(C2CC(=O)Nc3n[nH]cc32)ccc1OCc1ccccc1OC(F)F` (stereo not drawn) [Example 17, 4-(4-{[2-(difluoromethoxy)phenyl]methoxy}-3-methoxyphenyl)-2H,4H,5H,6H,7H-pyrazolo[3,4-b]pyridin-6-one], for which the IC50 is 10 to 100 nM.

For `COc1cc(C2CC(=O)Nc3n[nH]cc32)ccc1OCc1ccccc1[N+](=O)[O-]` (stereo not drawn) [Example 18, 4-{3-methoxy-4-[(2-nitrophenyl)methoxy]phenyl}-2H,4H,5H,6H, 7H-pyrazolo[3,4-b]pyridin-6-one], the IC50 is 100 to 1000 nM.

On to `COc1cc(C2CC(=O)Nc3n[nH]cc32)ccc1OCc1c(F)cccc1C(F)(F)F` (stereo not drawn) [Example 21, 4-(4-{[2-fluoro-6-(trifluoromethyl)phenyl]methoxy}-3-methoxyphenyl)-2H,4H,5H,6H,7H-pyrazolo[3,4-b]pyridin-6-one], for which the IC50 is 100 to 1000 nM.

For the compound `COc1cc(C2CC(=O)Nc3n[nH]cc32)ccc1OCc1cccc(Cl)c1Cl` (stereo not drawn) [Example 22, 4-{4-[(2,3-dichlorophenyl)methoxy]-3-methoxyphenyl}-2H,4H,5H,6H,7H-pyrazolo[3,4-b]pyridin-6-one], the IC50 was 100 to 1000 nM.

In the case of `COc1ccc([N+](=O)[O-])cc1COc1ccc(C2CC(=O)Nc3n[nH]cc32)cc1OC` (stereo not drawn) [Example 25, 4-{3-methoxy-4-[(2-methoxy-5-nitrophenyl)methoxy]phenyl}-2H,4H,5H,6H,7H-pyrazolo[3,4-b]pyridin-6-one], the IC50 is 100 to 1000 nM.

As to `COC(=O)c1ccccc1COc1ccc(C2CC(=O)Nc3n[nH]cc32)cc1OC` (stereo not drawn) [Example 26, methyl 2-(2-methoxy-4-{6-oxo-2H,4H,5H,6H,7H-pyrazolo[3,4-b]pyridin-4-yl}phenoxymethyl)benzoate], the IC50 was 10 to 100 nM.

On to `COc1cc(C2CC(=O)Nc3n[nH]cc32)ccc1OCc1cccc(C(F)(F)F)c1F` (stereo not drawn) [Example 28, 4-(4-{[2-fluoro-3-(trifluoromethyl)phenyl]methoxy}-3-methoxyphenyl)-2H,4H,5H,6H,7H-pyrazolo[3,4-b]pyridin-6-one], for which the IC50 was 100 to 1000 nM.

With `COc1cc(C2CC(=O)Nc3n[nH]cc32)ccc1OCc1cc(Cl)ccc1Cl` (stereo not drawn) [Example 29, 4-{4-[(2,5-dichlorophenyl)methoxy]-3-methoxyphenyl}-2H,4H,5H,6H, 7H-pyrazolo[3,4-b]pyridin-6-one], the IC50 was 100 to 1000 nM.

Regarding `COc1ccccc1COc1ccc(C2CC(=O)Nc3n[nH]cc32)cc1OC` (stereo not drawn) [Example 30, 4-{3-methoxy-4-[(2-methoxyphenyl)methoxy]phenyl}-2H,4H,5H,6H,7H-pyrazolo[3,4-b]pyridin-6-one], the IC50 was 100 to 1000 nM.

For the compound `COc1cc(C2CC(=O)Nc3n[nH]cc32)ccc1OCc1cc(Cl)cc(Cl)c1Cl` (stereo not drawn) [Example 31, 4-{3-methoxy-4-[(2,3,5-trichlorophenyl)methoxy]phenyl}-2H,4H,5H,6H,7H-pyrazolo[3,4-b]pyridin-6-one], the IC50 is 100 to 1000 nM.

Turning to `COc1cc(C2CC(=O)Nc3n[nH]cc32)ccc1OCc1ccc([N+](=O)[O-])cc1C(F)(F)F` (stereo not drawn) [Example 34, 4-(3-methoxy-4-{[4-nitro-2-(trifluoromethyl)phenyl]methoxy}phenyl)-2H,4H,5H,6H,7H-pyrazolo[3,4-b]pyridin-6-one], the IC50 was 10 to 100 nM.

Consider `COc1ccc(C(F)(F)F)c(COc2ccc(C3CC(=O)Nc4n[nH]cc43)cc2OC)c1` (stereo not drawn) [Example 35, 4-(3-methoxy-4-{[5-methoxy-2-(trifluoromethyl)phenyl]methoxy}phenyl)-2H,4H,5H,6H,7H-pyrazolo[3,4-b]pyridin-6-one], for which the IC50 is 10 to 100 nM.

`COc1cc(C2CC(=O)Nc3n[nH]cc32)ccc1OCc1ccc(S(C)(=O)=O)cc1C(F)(F)F` (stereo not drawn) [Example 37, 4-(4-{[4-methanesulfonyl-2-(trifluoromethyl)phenyl]methoxy}-3-methoxyphenyl)-2H,4H,5H,6H,7H-pyrazolo[3,4-b]pyridin-6-one]: the IC50 is 100 to 1000 nM.

As to `COc1cc(C2CC(=O)Nc3n[nH]cc32)ccc1OCc1cccc(OC)c1OC` (stereo not drawn) [Example 39, 4-{4-[(2,3-dimethoxyphenyl)methoxy]-3-methoxyphenyl}-2H,4H,5H,6H,7H-pyrazolo[3,4-b]pyridin-6-one], the IC50 was 100 to 1000 nM.

`COc1cc(C2CC(=O)Nc3n[nH]cc32)ccc1OCc1cc2c(cc1Br)OCO2` (stereo not drawn) [Example 43, 4-{4-[(6-bromo-2H-1,3-benzodioxol-5-yl)methoxy]-3-methoxyphenyl}-2H,4H,5H,6H, 7H-pyrazolo[3,4-b]pyridin-6-one]: the IC50 is 10 to 100 nM.

For `C#Cc1ccccc1COc1ccc(C2CC(=O)Nc3n[nH]cc32)cc1OC` (stereo not drawn) [Example 44, 4-{4-[(2-ethynylphenyl)methoxy]-3-methoxyphenyl}-2H,4H,5H,6H,7H-pyrazolo[3,4-b]pyridin-6-one], the IC50 is 10 to 100 nM.

As for `COc1cc(C2CC(=O)Nc3n[nH]cc32)ccc1OCc1cccc2ccsc12` (stereo not drawn) [Example 45, 4-{4-[(1-benzothiophen-7-yl)methoxy]-3-methoxyphenyl}-2H,4H,5H,6H, 7H-pyrazolo[3,4-b]pyridin-6-one], the IC50 is 10 to 100 nM.

For `COc1cc(C2CC(=O)Nc3n[nH]cc32)ccc1OCc1cccc2c1OC(C)(C)C2` (stereo not drawn) [Example 46, 4-{4-[(2,2-dimethyl-2,3-dihydro-1-benzofuran-7-yl)methoxy]-3-methoxyphenyl}-2H,4H,5H,6H, 7H-pyrazolo[3,4-b]pyridin-6-one], the IC50 is 100 to 1000 nM.

For the compound `COc1cc(C2CC(=O)Nc3n[nH]cc32)ccc1OCc1cccc2cccnc12` (stereo not drawn) [Example 47, 4-{3-methoxy-4-[(quinolin-8-yl)methoxy]phenyl}-2H,4H,5H,6H, 7H-pyrazolo[3,4-b]pyridin-6-one], the IC50 was 100 to 1000 nM.

As for `CCOC(=O)c1ccccc1COc1ccc(C2CC(=O)Nc3n[nH]cc32)cc1OC` (stereo not drawn) [Example 48, ethyl 2-[(2-methoxy-4-{6-oxo-2H,4H,5H, 6H,7H-pyrazolo[3,4-b]pyridin-4-yl}phenoxy)methyl]benzoate], the IC50 is 100 to 1000 nM.
